23 compounds from patent US12473304B2, “Heterocyclic PAD4 inhibitors” (BRISTOL-MYERS SQUIBB COMPANY, priority 2020, dated 2025) can be followed below.

Molecules are shown by their SMILES.

human PAD4 (hPAD4), sequence (Q9UM07 whole entry): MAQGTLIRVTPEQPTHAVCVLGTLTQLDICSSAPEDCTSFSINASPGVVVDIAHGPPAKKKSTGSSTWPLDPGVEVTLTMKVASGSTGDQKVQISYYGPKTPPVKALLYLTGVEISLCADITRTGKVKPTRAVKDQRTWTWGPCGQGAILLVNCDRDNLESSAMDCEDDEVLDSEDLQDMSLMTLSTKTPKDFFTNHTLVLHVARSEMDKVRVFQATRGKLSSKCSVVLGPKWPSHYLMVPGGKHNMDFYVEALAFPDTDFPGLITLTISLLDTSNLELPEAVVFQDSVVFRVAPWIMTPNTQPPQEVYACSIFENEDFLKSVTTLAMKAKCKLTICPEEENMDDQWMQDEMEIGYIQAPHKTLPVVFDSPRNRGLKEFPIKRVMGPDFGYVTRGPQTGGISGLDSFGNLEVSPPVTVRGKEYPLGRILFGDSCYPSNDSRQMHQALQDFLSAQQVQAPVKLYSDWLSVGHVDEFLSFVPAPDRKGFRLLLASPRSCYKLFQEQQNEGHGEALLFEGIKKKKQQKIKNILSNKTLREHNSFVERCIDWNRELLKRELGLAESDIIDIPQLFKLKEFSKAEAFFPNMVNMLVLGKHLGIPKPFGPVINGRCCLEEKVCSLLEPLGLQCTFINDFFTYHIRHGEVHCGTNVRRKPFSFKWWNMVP

The assay deals with human PAD4 (hPAD4) (Homo sapiens (Human), UniProt Q9UM07). Briefly: RFMS Human PAD4 Functional Assay 1. Format: biochemical. Particulars: RFMS assay 1; 5 nM hPAD4, 250 μM BAEE substrate, 50 μM calcium, 37° C. The gist of the method:
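Recombinant hPAD4 (5 nM) was preincubated with compound (top 50 μM, 0.5% DMSO) for 30 min at 37 °C, then reacted with 250 μM BAEE for 90 min at 37 °C in pH 7.5 HEPES buffer with 50 μM calcium and 5 μM TPEN. Product was derivatized with phenyl glyoxal and quantified by RapidFire MS.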
One may read the IC50 as the concentration that gives 50% inhibition. In the case of `Cc1c(-c2cc3cccc(C4CN(C(=O)[C@@H]5CCC[C@H](O)C5)C4)c3n2CC2CC2)nn2cc(C(=O)N3C[C@H](N)C[C@@H](F)C3)ccc12` [Example 531, ((3R,5R)-3-Amino-5-fluoropiperidin-1-yl)(2-(1-(cyclopropylmethyl)-7-(1-((1R,3S)-3-hydroxycyclohexane-1-carbonyl)azetidin-3-yl)-1H-indol-2-yl)-3-methylpyrazolo[1,5-a]pyridin-6-yl)methanone], the IC50 was found to be 580 nM.

On to `Cc1c(-c2cc3cc(F)cc(C4CCN(C(=O)C5CC(O)C5)CC4)c3n2CC2CC2)nn2cc(C(=O)N3C[C@H](N)C[C@@H](F)C3)ccc12` (mixture of isomers) [Example 496, ((3R,5R)-3-Amino-5-fluoropiperidin-1-yl)(2-(1-(cyclopropylmethyl)-5-fluoro-7-(1-(3-hydroxycyclobutane-1-carbonyl)piperidin-4-yl)-1H-indol-2-yl)-3-methylpyrazolo[1,5-a]pyridin-6-yl)methanone], for which the IC50 is 20 nM.

Take `COc1cc(C(=O)N2CCC[C@@H](N)C2)cn2nc(-c3cc4ccnc(OCCn5cncn5)c4n3CC3CC3)c(C)c12` [Example 593, (R)-(2-(7-(2-(1H-1,2,4-Triazol-1-yl)ethoxy)-1-(cyclopropylmethyl)-1H-pyrrolo[2,3-c]pyridin-2-yl)-4-methoxy-3-methylpyrazolo[1,5-a]pyridin-6-yl)(3-aminopiperidin-1-yl)methanone]: the concentration for half-maximal inhibition (IC50) stood at 110 nM. With `Cc1cc(C(N)=O)c(F)cc1-c1ccc2cc(-c3nn4cc(C(=O)N5CC6CCC5[C@@H]6N)ccc4c3C)n(CC3CC3)c2n1` (stereo partly drawn) [Example 305, 4-(2-{6-[(7R)-7-Amino-2-azabicyclo[2.2.1]heptane-2-carbonyl]-3-methylpyrazolo[1,5-a]pyridin-2-yl}-1-(cyclopropylmethyl)-1H-pyrrolo[2,3-b]pyridin-6-yl)-2-fluoro-5-methylbenzamide], the 50% inhibitory concentration (IC50) was determined as 40 nM. For the compound `COc1cc(C(=O)N2CC3CCC2[C@@H]3N)cn2nc(-c3cc4ccnc(OC[C@H]5CCC(=O)N5)c4n3CC3CC3)c(C)c12` (stereo partly drawn) [Example 604, (5R)-5-(((2-(6-((7R)-7-Amino-2-azabicyclo[2.2.1]heptane-2-carbonyl)-4-methoxy-3-methylpyrazolo[1,5-a]pyridin-2-yl)-1-(cyclopropylmethyl)-1H-pyrrolo[2,3-c]pyridin-7-yl)oxy)methyl)pyrrolidin-2-one], the half-maximal inhibitory concentration (IC50) was 30 nM.

For `COc1cc(C(=O)N2C[C@H](N)C[C@@H](F)C2)cn2nc(-c3cc4cccc(OC[C@H]5CCC(=O)N5)c4n3CC3CC3)c(C)c12` [Example 550, (R)-5-(((2-(6-((3R,5R)-3-amino-5-fluoropiperidine-1-carbonyl)-4-methoxy-3-methylpyrazolo[1,5-a]pyridin-2-yl)-1-(cyclopropylmethyl)-1H-indol-7-yl)oxy)methyl)pyrrolidin-2-one], the IC50 stood at 50 nM. Then `Cc1c(-c2cc3ccc(-c4ccn5c(C)nnc5c4)cc3n2CC2CC2)nn2cc(C(=O)N3CCC[C@@H](N)C3)ccc12` [Example 349, (R)-(3-Aminopiperidin-1-yl)(2-(1-(cyclopropylmethyl)-6-(3-methyl-[1,2,4]triazolo[4,3-a]pyridin-7-yl)-1H-indol-2-yl)-3-methylpyrazolo[1,5-a]pyridin-6-yl)methanone], with 100 nM. In the case of `COc1cc(C(=O)N2C[C@H](N)C[C@@H](F)C2)cn2nc(-c3cc4ccc(-c5cccc(NS(C)(=O)=O)c5)cc4n3CC3CC3)c(C)c12` [Example 213, N-[3-(2-{6-[(3R,5R)-3-Amino-5-fluoropiperidine-1-carbonyl]-4-methoxy-3-methylpyrazolo[1,5-a]pyridin-2-yl}-1-(cyclopropylmethyl)-1H-indol-6-yl)phenyl]methanesulfonamide], the half-inhibitory concentration (IC50) is 680 nM. Take `Cc1c(-c2cc3cccc(C4CCN(C(=O)C5CCCO5)CC4)c3n2CC2CC2)nn2cc(C(=O)N3C[C@H](N)C[C@@H](F)C3)ccc12` (mixture of isomers) [Example 463, ((3R,5R)-3-amino-5-fluoropiperidin-1-yl)(2-(1-(cyclopropylmethyl)-7-(1-(tetrahydrofuran-2-carbonyl)piperidin-4-yl)-1H-indol-2-yl)-3-methylpyrazolo[1,5-a]pyridin-6-yl)methanone]: the IC50 amounted to 100 nM. On to `Cc1c(-c2cc3ccc(-c4ccn5c(C)nnc5c4)cc3n2CC2CC2)nn2cc(C(=O)N3C[C@H](N)C[C@@H](F)C3)ccc12` [Example 379, (3R,5R)-1-{2-[1-(Cyclopropylmethyl)-6-{3-methyl-[1,2,4]triazolo[4,3-a]pyridin-7-yl}-1H-indol-2-yl]-3-methylpyrazolo[1,5-a]pyridine-6-carbonyl}-5-fluoropiperidin-3-amine], for which the IC50 is 160 nM.

For `COc1cc(C(=O)N2CC3CCC2[C@@H]3N)cn2nc(-c3cc4ccnc(OCC5CNC(=O)C5)c4n3CC3CC3)c(C)c12` (single isomer, unassigned; isomer 2) [Example 606], the IC50 stood at 50 nM.

In the case of `Cc1c(-c2cc3ccc(-c4ccc5c(c4)CNC5=O)nc3n2CC2CC2)oc2cc(C(=O)N3CC4CCC3[C@@H]4N)ccc12` (stereo partly drawn) [Example 168, 5-(2-(6-((7R)-7-Amino-2-azabicyclo[2.2.1]heptane-2-carbonyl)-3-methylbenzofuran-2-yl)-1-(cyclopropylmethyl)-1H-pyrrolo[2,3-b]pyridin-6-yl)isoindolin-1-one], the IC50 was determined as 47 nM. Consider `Cc1c(-c2cc3ccc(-c4ccc5c(c4)CNC5=O)cc3n2CC2CC2)oc2cc(C(=O)N3C[C@H](N)C[C@@H](F)C3)ccc12` [Example 195, 5-(2-(6-((3R,5R)-3-Amino-5-fluoropiperidine-1-carbonyl)-3-methylbenzofuran-2-yl)-1-(cyclopropylmethyl)-1H-indol-6-yl)isoindolin-1-one], for which the IC50 was found to be 363 nM. For the compound `Cc1c(-c2cc3ccc(-c4ccc5c(c4)CNC5=O)cc3n2CC2CC2)nn2cc(C(=O)N3CC4CCC3[C@@H]4N)ccc12` (stereo partly drawn) [Example 90, 5-(2-(6-((7R)-7-Amino-2-azabicyclo[2.2.1]heptane-2-carbonyl)-3-methylpyrazolo[1,5-a]pyridin-2-yl)-1-(cyclopropylmethyl)-1H-indol-6-yl)isoindolin-1-one], the half-maximal inhibitory concentration (IC50) amounted to 12 nM.

`COCC(=O)N1CCC(c2cc(F)cc3cc(-c4nn5cc(C(=O)N6CCC[C@@H](N)C6)ccc5c4C)n(CC4CC4)c23)CC1` [Example 502, (R)-1-(4-(2-(6-(3-Aminopiperidine-1-carbonyl)-3-methylpyrazolo[1,5-a]pyridin-2-yl)-1-(cyclopropylmethyl)-5-fluoro-1H-indol-7-yl)piperidin-1-yl)-2-methoxyethan-1-one]: the half-inhibitory concentration (IC50) stood at 70 nM.

For the compound `Cc1c(O)cccc1-c1ccc2cc(-c3nn4cc(C(=O)N5CCC[C@@H](N)C5)cc(F)c4c3C)n(CC3CC3)c2n1` [Example 282, 3-(2-{6-[(3R)-3-Aminopiperidine-1-carbonyl]-4-fluoro-3-methylpyrazolo[1,5-a]pyridin-2-yl}-1-(cyclopropylmethyl)-1H-pyrrolo[2,3-b]pyridin-6-yl)-2-methylphenol], the IC50 worked out at 170 nM. Turning to `COCC1CN(c2ccc3cc(-c4nn5cc(C(=O)N6C[C@H](N)C[C@@H](F)C6)cc(OC)c5c4C)n(CC4CC4)c3c2)C1` [Example 33, ((3R,5R)-3-Amino-5-fluoropiperidin-1-yl)(2-(1-(cyclopropylmethyl)-6-(3-(methoxymethyl)-azetidin-1-yl)-1H-indol-2-yl)-4-methoxy-3-methylpyrazolo[1,5-a]pyridin-6-yl)methanone], the half-inhibitory concentration (IC50) is 534 nM. Next, `Cc1c(-c2cc3cccc(C4CCN(C(=O)CC(C)C)CC4)c3n2CC2CC2)nn2cc(C(=O)N3C[C@H](N)C[C@@H](F)C3)ccc12` [Example 445, 1-(4-(2-(6-((3R,5R)-3-amino-5-fluoropiperidine-1-carbonyl)-3-methylpyrazolo[1,5-a]pyridin-2-yl)-1-(cyclopropylmethyl)-1H-indol-7-yl)piperidin-1-yl)-3-methylbutan-1-one]: 160 nM; `Cc1cc(C(N)=O)c(F)cc1-c1ccc2cc(-c3nn4cc(C(=O)N5CCC[C@@H](N)C5)cc(F)c4c3C)n(CC3CC3)c2n1` [Example 277, 4-(2-{6-[(3R)-3-Aminopiperidine-1-carbonyl]-4-fluoro-3-methylpyrazolo[1,5-a]pyridin-2-yl}-1-(cyclopropylmethyl)-1H-pyrrolo[2,3-b]pyridin-6-yl)-2-fluoro-5-methylbenzamide]: 220 nM; `Cc1c(-c2cc3ccc(-c4ccc(CNS(C)(=O)=O)cc4)cc3n2CC2CC2)nn2cc(C(=O)N3CCC[C@@H](N)C3)ccc12` [Example 342, N-{[4-(2-{6-[(3R)-3-Aminopiperidine-1-carbonyl]-3-methylpyrazolo[1,5-a]pyridin-2-yl}-1-(cyclopropylmethyl)-1H-indol-6-yl)phenyl]methyl}methanesulfonamide]: 930 nM. Regarding `Cc1c(-c2cc3ccc(-c4ccc(CNS(C)(=O)=O)cc4)cc3n2CC2CC2)nn2cc(C(=O)N3C[C@H](N)C[C@@H](F)C3)ccc12` [Example 370, N-{[4-(2-{6-[(3R,5R)-3-Amino-5-fluoropiperidine-1-carbonyl]-3-methylpyrazolo[1,5-a]pyridin-2-yl}-1-(cyclopropylmethyl)-1H-indol-6-yl)phenyl]methyl}methanesulfonamide], the IC50 turned out to be 130 nM. As to `Cc1c(-c2cc3ccc(N4CCOCC4)cc3n2CC2CC2)nn2cc(C(=O)N3CC4CCC3[C@@H]4N)ccc12` (stereo partly drawn) [Example 350, (7R)-2-{2-[1-(Cyclopropylmethyl)-6-(morpholin-4-yl)-1H-indol-2-yl]-3-methylpyrazolo[1,5-a]pyridine-6-carbonyl}-2-azabicyclo[2.2.1]heptan-7-amine], the half-maximal inhibitory concentration (IC50) stood at 30 nM.

Consider `Cc1c(-c2cc3ccc(-c4cccc5[nH]ncc45)nc3n2CC2CC2)nn2cc(C(=O)N3CC4CCC3[C@@H]4N)ccc12` (stereo partly drawn) [Example 299, (7R)-2-{2-[1-(Cyclopropylmethyl)-6-(1H-indazol-4-yl)-1H-pyrrolo[2,3-b]pyridin-2-yl]-3-methylpyrazolo[1,5-a]pyridine-6-carbonyl}-2-azabicyclo[2.2.1]heptan-7-amine], for which the IC50 was found to be 20 nM.
